Test results from patent US12637410B2, “Vesicular monoamine transporter-2 ligands and their use in the treatment of psychostimulant abuse” (priority 2016, dated 2026).
Read-outs that look alike come from different tables or passages of the source.

Legend:
[1] = molecular target: T1, VMAT2 (Rattus norvegicus, UniProt Q01827); test: [3H]Dopamine ([3H]DA) uptake assay, vesicular preparation; assay type: biochemical
T1 construct: from tissue; host or cells: rat striatum, isolated synaptic vesicles

[2] = molecular target: T2, hERG channel (Homo sapiens, UniProt Q12809); test: [3H]Dofetilide binding assay, HEK-293 cell membrane preparation; conditions: hERG Binding: Mean Ki (nM)
T2 construct: purchased; host or cells: HEK-293 cells stably expressing hERG (membranes)
T2 sequence (Q12809 whole entry): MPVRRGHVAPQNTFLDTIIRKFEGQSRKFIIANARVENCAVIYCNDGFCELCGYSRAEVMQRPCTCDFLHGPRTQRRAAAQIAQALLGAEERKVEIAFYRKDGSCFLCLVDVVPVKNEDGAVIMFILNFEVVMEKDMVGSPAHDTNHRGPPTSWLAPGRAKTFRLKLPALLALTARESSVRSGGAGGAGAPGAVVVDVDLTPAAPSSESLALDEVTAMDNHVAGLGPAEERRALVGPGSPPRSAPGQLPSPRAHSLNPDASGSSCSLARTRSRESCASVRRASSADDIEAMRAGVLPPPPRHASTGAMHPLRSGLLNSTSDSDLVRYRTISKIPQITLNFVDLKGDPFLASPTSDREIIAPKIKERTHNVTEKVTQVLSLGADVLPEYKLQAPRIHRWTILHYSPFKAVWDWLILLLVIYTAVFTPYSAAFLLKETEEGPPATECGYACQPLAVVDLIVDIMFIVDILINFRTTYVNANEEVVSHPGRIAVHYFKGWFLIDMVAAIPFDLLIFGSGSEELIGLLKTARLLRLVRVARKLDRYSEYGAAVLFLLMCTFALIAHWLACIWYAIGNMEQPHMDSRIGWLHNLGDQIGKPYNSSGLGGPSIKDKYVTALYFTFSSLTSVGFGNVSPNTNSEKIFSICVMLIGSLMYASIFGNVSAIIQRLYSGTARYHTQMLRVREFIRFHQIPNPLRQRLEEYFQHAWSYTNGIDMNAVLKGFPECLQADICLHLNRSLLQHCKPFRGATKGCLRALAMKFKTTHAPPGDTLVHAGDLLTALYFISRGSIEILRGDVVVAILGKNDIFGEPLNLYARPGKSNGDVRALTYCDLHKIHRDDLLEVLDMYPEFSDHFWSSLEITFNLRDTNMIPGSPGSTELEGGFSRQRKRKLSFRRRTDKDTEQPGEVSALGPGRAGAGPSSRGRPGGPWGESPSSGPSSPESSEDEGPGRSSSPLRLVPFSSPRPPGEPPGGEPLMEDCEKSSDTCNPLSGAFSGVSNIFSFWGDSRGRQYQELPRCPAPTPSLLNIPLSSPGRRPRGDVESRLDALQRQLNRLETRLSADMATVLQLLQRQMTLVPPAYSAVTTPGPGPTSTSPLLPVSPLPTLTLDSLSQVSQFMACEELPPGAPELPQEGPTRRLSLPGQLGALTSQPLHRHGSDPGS
Method: Membranes were suspended in assay buffer (50 mM Tris, 10 mM KCl, 1 mM MgCl2, pH 7.4) prior to the experiment. […] Nonspecific binding was determined in the presence of amitriptyline (1 mM). Samples were incubated for 1 hr. at 24° C., followed by rapid filtration.

[3] = Microsomal assays, rat liver microsomes; conditions: for Microsomal stability assays: Species/Half-life (hr) Rat: rat liver microsomes; for CLint scaled at 0.08 µM: female, Sprague-Dawley, rat, pH 7.4
Method: Each plate holds triplicate samples of two controls (0.4 mM) and up to 14 compounds (0.08 mM) in rat and human liver microsomes. Aliquots of each well of the plate (175 μl of each well) were transferred from the master plate into 5 assay plates. […] NADPH regenerating system solution A (6.05 ml, Fisher Scientific, #NC9255727) was combined with NADPH regenerating system solution B (1.21 ml, Fisher Scientific, #NC9016235) in potassium phosphate buffer (15.8 ml, 0.1 M, pH 7.4, 37° C.). The resulting NADPH solution (43.8 μl) was added to each well of all the 96-well assay plates and mixed with pipette briefly making the final protein and compound concentrations respectively: 0.5 mg/ml, 0.08 μM (0.4 μM for controls). Plates were sealed, and all plates except the 0-hr plate were incubated at 37° C., shaken at a speed of 60 rpm. A single assay plate was tested at each time point: 0.5 hr, 1 hr, 2 hr, and 4 hr. At each time point, 437.5 μL of pre-cooled internal standard was added each well of the plate to quench the reaction. […] 120 μl supernatant was transferred to a 96-well plate, centrifuged again and analyzed by UPLC-MS (Waters Inc., Milford, MA). The compounds and internal standard were detected by selected ion recording (SIR).
The amount of material was measured as a ratio of peak area to the internal standard and graphed. Using the slope from the initial linear portion of this curve, the degradation rate constant is calculated using equation [1]. The rate constant was then used to calculate the compounds half-life in plasma using equation [2].

[4] = molecular target: dopamine transporter (DAT) (Rattus norvegicus, UniProt P23977); test: [3H]DA uptake assay, synaptosomal preparation
Chain of dopamine transporter (DAT) (P23977 whole entry): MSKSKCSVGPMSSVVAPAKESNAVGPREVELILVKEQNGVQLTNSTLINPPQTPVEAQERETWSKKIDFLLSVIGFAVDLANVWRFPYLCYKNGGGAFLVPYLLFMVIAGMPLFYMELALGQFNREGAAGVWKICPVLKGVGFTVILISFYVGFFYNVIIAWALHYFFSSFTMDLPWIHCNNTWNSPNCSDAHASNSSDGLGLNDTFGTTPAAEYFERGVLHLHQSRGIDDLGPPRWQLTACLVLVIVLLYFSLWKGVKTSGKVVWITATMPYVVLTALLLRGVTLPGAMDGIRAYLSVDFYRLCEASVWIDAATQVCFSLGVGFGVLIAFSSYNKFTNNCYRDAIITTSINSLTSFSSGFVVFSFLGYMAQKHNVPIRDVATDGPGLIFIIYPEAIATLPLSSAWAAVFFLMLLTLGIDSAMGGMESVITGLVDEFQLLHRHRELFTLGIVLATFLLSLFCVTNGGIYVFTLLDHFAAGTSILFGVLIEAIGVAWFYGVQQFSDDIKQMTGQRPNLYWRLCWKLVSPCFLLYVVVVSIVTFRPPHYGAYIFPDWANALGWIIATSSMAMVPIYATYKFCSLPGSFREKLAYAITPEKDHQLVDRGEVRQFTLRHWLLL
Method: [^3H]DA and [3H]5-HT uptake into striatal synaptosomes was determined to evaluate compound inhibition of the dopamine transporter (DAT) and the serotonin transporter (SERT), respectively. […] Assays were performed in duplicate in a total volume of 500 μL (for DAT assays) or 250 μL (for SERT assays). Aliquots of the synaptosomal suspension (25 μL for DAT, 50 μL for SERT) were added to tubes containing assay buffer and various concentrations of analog (1 nM-100 μM), and incubated at 34° C. for 5 min. Nonspecific uptake was determined in the presence of nomifensine (10 μM) for DAT assays or fluoxetine (10 μM) for SERT assays. […] Samples were placed on ice, and 50 μL of 0.1 μM [^3H]DA (for DAT assays) or 25 μL of 0.1 μM [^3H]5-HT (for SERT assays) was added to each tube, and incubated for 10 min at 34° C. Reactions were terminated by addition of 3 mL of ice-cold assay buffer and subsequent filtration and radioactivity retained by the filters was determined by liquid scintillation spectrometry (Tri-Carb 2100TR liquid scintillation analyzer; PerkinElmer Life and Analytical Sciences, Boston, MA).

[5] = [3H]dofetilide binding, HEK-293 membranes, mean of n>=3 unless N given
[6] = Table 4, mean, minimally n = 3, read-out: VMAT2 (rat) Inhibition: Mean Ki
[7] = [3H]DA uptake, rat vesicular preparation, mean of n>=3 unless N given, read-out: VMAT2 (rat) Inhibition: Mean Ki

T1 sequence (Q01827 whole entry): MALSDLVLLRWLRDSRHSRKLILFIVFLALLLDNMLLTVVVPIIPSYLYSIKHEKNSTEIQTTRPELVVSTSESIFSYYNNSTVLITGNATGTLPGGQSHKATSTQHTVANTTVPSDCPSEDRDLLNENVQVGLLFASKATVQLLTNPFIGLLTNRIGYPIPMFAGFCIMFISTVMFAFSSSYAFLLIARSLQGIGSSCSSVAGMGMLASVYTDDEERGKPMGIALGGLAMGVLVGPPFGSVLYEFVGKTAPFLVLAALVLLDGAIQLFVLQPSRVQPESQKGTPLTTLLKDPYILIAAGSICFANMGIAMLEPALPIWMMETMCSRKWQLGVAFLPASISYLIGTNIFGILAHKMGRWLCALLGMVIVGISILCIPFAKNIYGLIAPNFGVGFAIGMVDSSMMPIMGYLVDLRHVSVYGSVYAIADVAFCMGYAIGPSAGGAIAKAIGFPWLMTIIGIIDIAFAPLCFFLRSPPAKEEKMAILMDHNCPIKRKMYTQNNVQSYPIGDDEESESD

SMILES	Ki [1] [nM]	Ki [2, 5] [nM]	other results
CC(Cc1c[nH]c2ccccc12)NCCCc1ccc(F)cc1 (stereo not shown) [Compound 246]	66	731	–
COc1ccc(CCCNC(C)Cc2ccncc2)cc1 (stereo not shown) [Compound 172]	–	–	Microsomal stability assays: Species/Half-life (hr) Rat [3]: 0.1 h
O=C(O)C(Cc1ccc(F)cc1)NCCCc1ccc(Br)cc1 (stereo not shown) [Compound 286]	3130	–	–
CC(Cc1ccc(F)c(F)c1)NCCCc1ccccc1-c1ccnn1C (stereo not shown) [Compound 245]	136	2240	–
CC(Cc1ccc(F)c(F)c1)NCCCc1ccc(Cl)c(C(F)(F)F)c1 (stereo not shown) [Compound 273]	538	1220	–
CC(Cc1ccc(F)cc1)NCCCc1ccc([N+](=O)[O-])c(C(F)(F)F)c1 (stereo not shown) [Compound 251]	55	535	–
CC(Cc1cccc(C(N)=O)c1)NCCCc1ccc(F)cc1 (stereo not shown) [Compound 301]	–	–	Ki [1, 6]: 43 nM; Ki ([2]; Table 4, mean, minimally n = 3): 1310 nM; CLint scaled at 0.08 µM [3]: 22 mL/min/kg; Ki [4]: 6.07 µM
CC(Cc1ccc(F)c(F)c1)NCCCc1ccc(-c2ccnn2C)cc1 (stereo not shown) [Compound 244]	118	1030	–
CC(Cc1ccc(F)c(F)c1)NCCCc1ccc2ncoc2c1 (stereo not shown) [Compound 256]	50	4880	–
CC(Cc1ccc(F)c(F)c1)NCCCc1cccc(S(N)(=O)=O)c1 (stereo not shown) [Compound 236]	99	2010	–
CC(C)C(Cc1ccc(F)cc1)NCCCc1ccc(Br)cc1 (stereo not shown) [Compound 140]	–	–	Microsomal stability assays: Species/Half-life (hr) Rat [3]: 0.1 h
CC(Cc1ccc(F)cc1)NCCCc1ccc(Cl)cc1 (stereo not shown) [Compound 188]	–	500	–
CC(Cc1ccccc1)ONCCc1ccccc1 (racemic) [Compound 295]	41300	–	–
CC(Cc1ccc(F)c(F)c1)NCCCc1ccnc(C(F)(F)F)c1 (stereo not shown) [Compound 247]	349	–	–
CC(Cc1ccc(F)c(F)c1)NCCCc1ccc2[nH]ncc2c1 (stereo not shown) [Compound 234]	54	1020	Ki ([2]; Table 4, mean, minimally n = 3): 1020 nM; CLint scaled at 0.08 µM [3]: 114 mL/min/kg; Ki [4]: 0.703 µM
CC(Cc1ccc(F)c(F)c1)NCCCc1cccc(-c2cccnc2)c1 (stereo not shown) [Compound 283]	41	182	–
CC(Cc1ccc(F)c(F)c1)NCCCc1cc(Cl)cc(Cl)c1 (stereo not shown) [Compound 270]	38	1500	–
CC(Cc1cccc(NC(N)=O)c1)NCCCc1ccc(F)cc1 (stereo not shown) [Compound 306]	9	–	Ki ([2]; Table 4, mean, minimally n = 3): 2750 nM; CLint scaled at 0.08 µM [3]: 47 mL/min/kg; Ki [4]: 2.97 µM
CC(Cc1ccc(NC(N)=O)cc1)NCCCc1ccc(F)cc1 (stereo not shown) [Compound 302]	34	–	Ki ([2]; Table 4, mean, minimally n = 3): 7110 nM; CLint scaled at 0.08 µM [3]: 30 mL/min/kg; Ki [4]: 3.13 µM
CC(Cc1ccc(F)c(F)c1)NCCCc1cccc(Cl)c1Cl (stereo not shown) [Compound 271]	42	462	–
CC(Cc1ccc2nccnc2c1)NCCCc1ccc(S(N)(=O)=O)cc1 (stereo not shown) [Compound 305]	46	–	Ki ([2]; Table 4, mean, minimally n = 3): 4390 nM; CLint scaled at 0.08 µM [3]: 43 mL/min/kg; Ki [4]: 20.5 µM
CC(Cc1ccc(F)cc1)NCCCc1ccccc1 (stereo not shown) [Compound 126]	–	–	Microsomal stability assays: Species/Half-life (hr) Rat [3]: 0.1 h
CC(Cc1ccc(F)c(F)c1)NCCCc1ccccc1Cl (stereo not shown) [Compound 268]	28	233	–
CC(Cc1ccc2nccnc2c1)NCCCc1ccc(F)cc1 (stereo not shown) [Compound 308]	13	–	Ki ([2]; Table 4, mean, minimally n = 3): 1900 nM; CLint scaled at 0.08 µM [3]: 56 mL/min/kg; Ki [4]: 2.93 µM

SMILES	Ki [1] [nM]	Ki [2, 5] [nM]	other results
CSc1ccc(CCCNC(C)Cc2ccc(F)c(F)c2)cc1 (stereo not shown) [Compound 261]	32	316	–
CC(Cc1ccc(F)c(F)c1)NCCCc1ccc(Cl)cc1Cl (stereo not shown) [Compound 269]	61	279	–
CC(Cc1ccc(F)cc1)NCCCc1ccc2[nH]ccc2c1 (stereo not shown) [Compound 56]	–	1260	Microsomal stability assays: Species/Half-life (hr) Rat [3]: 0.1 h
CC(Cc1ccc(NC=O)cc1)NCCCc1ccc(F)cc1 (stereo not shown) [Compound 88]	12	–	–
CC(Cc1ccc(F)c(F)c1)NCCCc1ccc2cn[nH]c2c1 (stereo not shown) [Compound 233]	33	483	–
CC(Cc1ccc(F)c(F)c1)NCCCc1ccc2c(c1)[nH]c(=O)n2C (stereo not shown) [Compound 254]	187	–	–
CC(Cc1cc(F)cc(F)c1)NCCCc1ccc(C(N)=O)cc1 (stereo not shown) [Compound 300]	–	–	Ki [1, 6]: 6 nM; Ki ([2]; Table 4, mean, minimally n = 3): 8100 nM; CLint scaled at 0.08 µM [3]: 21 mL/min/kg; Ki [4]: 1.57 µM
CC(Cc1ccc(F)cc1)NCCCc1c[nH]c2ccccc12 (stereo not shown) [Compound 91]	–	–	Microsomal stability assays: Species/Half-life (hr) Rat [3]: 0.1 h
CC(Cc1ccc(F)c(F)c1)NCCCc1cccc(N(C)C)c1 (stereo not shown) [Compound 266]	171	2460	–
CC(Cc1ccc(F)cc1)NCCCc1ccc(C(N)=O)cc1 (stereo not shown) [Compound 298]	–	–	Ki [1, 6]: 16 nM; Ki ([2]; Table 4, mean, minimally n = 3): 12400 nM; CLint scaled at 0.08 µM [3]: 18 mL/min/kg; Ki [4]: 3.98 µM
CC(Cc1ccc(F)c(F)c1)NCCCc1cccc(C(F)(F)F)c1 (stereo not shown) [Compound 250]	39	4100	–
CC(Cc1ccc(F)c(F)c1)NCCCc1ccc(C(=O)O)cc1 (stereo not shown) [Compound 257]	6480	> 34700	–
CC(Cc1ccccc1)N(CCCc1ccc(I)cc1)C(=O)OCc1ccccc1 (stereo not shown) [Compound 290]	–	–	Ki [1, 7]: 4800 nM
CC(Cc1ccc(F)c(F)c1)NCCCc1ccc(C(N)=O)c(Cl)c1 (stereo not shown) [Compound 297]	21	–	Ki ([2]; Table 4, mean, minimally n = 3): 5020 nM; CLint scaled at 0.08 µM [3]: < 17 mL/min/kg; Ki [4]: 5.82 µM
CC(Cc1ccc(F)c(F)c1)NCCCc1ccc2cnoc2c1 (stereo not shown) [Compound 311]	51	–	Ki ([2]; Table 4, mean, minimally n = 3): 4200 nM; CLint scaled at 0.08 µM [3]: 117 mL/min/kg; Ki [4]: 2.72 µM
CC(Cc1ccc(F)c(F)c1)NCCCc1ccccc1N (stereo not shown) [Compound 238]	220	3250	–
CC(Cc1ccc(F)c(F)c1)NCCCc1ccc2ncsc2c1 (stereo not shown) [Compound 252]	67	1580	–
CC(Cc1ccc(F)c(F)c1)NCCCc1ccc(Cl)c(Cl)c1 (stereo not shown) [Compound 272]	57	462	–
CC(Cc1ccc(F)c(F)c1)NCCCc1ccc2nccnc2c1 (stereo not shown) [Compound 232]	52	3300	Ki ([2]; Table 4, mean, minimally n = 3): 2590 nM; CLint scaled at 0.08 µM [3]: 159 mL/min/kg; Ki [4]: 3.58 µM
CC(Cc1ccc(Br)cc1)NCCCc1ccc(N)cc1 (stereo not shown) [Compound 240]	48	1130	–
FCC(Cc1ccccc1)NCCCc1ccc(F)cc1 (stereo not shown) [Compound 101]	–	–	Ki [1, 7]: 17 nM
CC(Cc1ccc(F)c(F)c1)NCCCc1cccc(-c2ccnn2C)c1 (stereo not shown) [Compound 281]	51	592	–
CC(Cc1ccc(F)cc1)NCCCc1ccccn1 (stereo not shown) [Compound 279]	200	2400	–
CC(Cc1c[nH]c2ccccc12)NCCCc1ccc(F)cc1 (stereo not shown) [Compound 277]	–	732	Ki ([1]; read-out: VMAT2 (rat) Inhibition: Mean Ki, [3H]DA uptake, rat vesicular preparation, mean of n>=3 unless N given): 66 nM

SMILES	Ki [1] [nM]	Ki [2, 5] [nM]	other results
CC(Cc1ccc(F)c(F)c1)NCCCc1ccccc1-c1cccnc1 (stereo not shown) [Compound 282]	88	364	–
NC(Cc1cn(Cc2ccccc2)cn1)C(=O)OCC(Cc1ccc(F)cc1)NCCCc1ccc(Br)cc1 (stereo not shown) [Compound 287]	533	–	–
CC(Cc1ccc(F)c(F)c1)NCCCc1ccc2c(c1)C(=O)OC2 (stereo not shown) [Compound 253]	268	–	–
CC(C)C(Cc1ccc(F)cc1)NCCCc1ccccc1 (stereo not shown) [Compound 136]	460	–	–
CC(Cc1ccc(F)cc1)NCCCc1ccc(Cl)c(N)c1 (stereo not shown) [Compound 242]	38	1440	–
CC(=O)Nc1ccc(CCCNC(C)Cc2ccc(Br)cc2)cc1 (stereo not shown) [Compound 276]	24	3430	–
CC(Cc1ccc(F)c(F)c1)NCCCc1cccc(N)c1 (stereo not shown) [Compound 265]	202	5560	–
CC(Cc1ccc(F)c(F)c1)NCCCc1ccc(C(C)(C)C)cc1 (stereo not shown) [Compound 264]	209	2190	–
CC(Cc1ccccc1)N(CCCc1ccc(O)cc1)C(=O)OC(C)(C)C (stereo not shown) [Compound 288]	> 100000	–	–
CC(Cc1ccccc1)N(CCCc1ccc([N+](=O)[O-])cc1)C(=O)OCc1ccccc1 (stereo not shown) [Compound 289]	2970	–	–
CC(Cc1ccc(F)cc1)NCCCc1ccc(N(C)C)cc1 (stereo not shown) [Compound 156]	–	49000	–
CC(Cc1ccc(F)c(F)c1)NCCCc1cccc2ncoc12 (stereo not shown) [Compound 255]	54	3370	–
CC(Cc1ccc(F)cc1)NCCCc1cccnc1 (stereo not shown) [Compound 278]	98	3980	–
CC(Cc1ccc(F)c(F)c1)NCCCc1cccc(Cl)c1 (stereo not shown) [Compound 267]	19	1000	–
CC(Cc1ccc(F)cc1)NCCCc1cccc(N)c1 (stereo not shown) [Compound 241]	106	6390	–
CC(Cc1ccc(F)c(F)c1)NCCCc1ccc(OC(C)C)cc1 (stereo not shown) [Compound 259]	104	818	–
CC(Cc1ccccc1)N(CCCc1ccc(N)cc1)C(=O)OCc1ccccc1 (stereo not shown) [Compound 291]	–	–	Ki [1, 7]: 3100 nM
CC(Cc1ccc(F)cc1)NCCCc1ccc(NS(C)(=O)=O)cc1 (stereo not shown) [Compound 275]	53	308	–
C[C@H](Cc1ccccc1)ONCCc1ccccc1 [Compound 296]	20000	–	–
FCC(Cc1ccccc1)NCCCc1ccccc1 (stereo not shown) [Compound 98]	–	–	Microsomal stability assays: Species/Half-life (hr) Rat [3]: 0.1 h
CC(Cc1ccc(F)c(F)c1)NCCCc1ccc(NS(C)(=O)=O)cc1 (stereo not shown) [Compound 274]	45	220	–
CC(Cc1ccc([N+](=O)[O-])cc1)NCCCc1ccc(Br)cc1 (stereo not shown) [Compound 121]	–	–	Microsomal stability assays: Species/Half-life (hr) Rat [3]: 0.1 h
